Experimental data taken from US8211935B2, “Heterocyclic derivatives for modulation of calcium channels” (Vertex Pharmaceuticals Incorporated, priority 2004, dated 2012).
Where two headings read alike, the source gives them in different places.

Target: T1, CaV2.2 (Homo sapiens, UniProt Q00975)
T1 construct: expressed in transfected cells; host or cells: HEK293
Experiment: VIPR optical membrane potential assay with electrical stimulation
Format: cell-based
Procedure, shortened: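 HEK293 cells stably expressing CaV2.2, stained with CC2-DMPE (10 μM final) and oxonol voltage-sensitive dyes, compound added with BaCl2. Membrane potential response evoked by 3-5 s electrical stimulation. Read as background-subtracted 460/580 nm emission ratio, response R=Rf/Ri, normalized to mibefradil positive and no-drug negative controls.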

[1] = Table 3, biological assay data, read-out: IC50

T1 sequence (Q00975 whole entry): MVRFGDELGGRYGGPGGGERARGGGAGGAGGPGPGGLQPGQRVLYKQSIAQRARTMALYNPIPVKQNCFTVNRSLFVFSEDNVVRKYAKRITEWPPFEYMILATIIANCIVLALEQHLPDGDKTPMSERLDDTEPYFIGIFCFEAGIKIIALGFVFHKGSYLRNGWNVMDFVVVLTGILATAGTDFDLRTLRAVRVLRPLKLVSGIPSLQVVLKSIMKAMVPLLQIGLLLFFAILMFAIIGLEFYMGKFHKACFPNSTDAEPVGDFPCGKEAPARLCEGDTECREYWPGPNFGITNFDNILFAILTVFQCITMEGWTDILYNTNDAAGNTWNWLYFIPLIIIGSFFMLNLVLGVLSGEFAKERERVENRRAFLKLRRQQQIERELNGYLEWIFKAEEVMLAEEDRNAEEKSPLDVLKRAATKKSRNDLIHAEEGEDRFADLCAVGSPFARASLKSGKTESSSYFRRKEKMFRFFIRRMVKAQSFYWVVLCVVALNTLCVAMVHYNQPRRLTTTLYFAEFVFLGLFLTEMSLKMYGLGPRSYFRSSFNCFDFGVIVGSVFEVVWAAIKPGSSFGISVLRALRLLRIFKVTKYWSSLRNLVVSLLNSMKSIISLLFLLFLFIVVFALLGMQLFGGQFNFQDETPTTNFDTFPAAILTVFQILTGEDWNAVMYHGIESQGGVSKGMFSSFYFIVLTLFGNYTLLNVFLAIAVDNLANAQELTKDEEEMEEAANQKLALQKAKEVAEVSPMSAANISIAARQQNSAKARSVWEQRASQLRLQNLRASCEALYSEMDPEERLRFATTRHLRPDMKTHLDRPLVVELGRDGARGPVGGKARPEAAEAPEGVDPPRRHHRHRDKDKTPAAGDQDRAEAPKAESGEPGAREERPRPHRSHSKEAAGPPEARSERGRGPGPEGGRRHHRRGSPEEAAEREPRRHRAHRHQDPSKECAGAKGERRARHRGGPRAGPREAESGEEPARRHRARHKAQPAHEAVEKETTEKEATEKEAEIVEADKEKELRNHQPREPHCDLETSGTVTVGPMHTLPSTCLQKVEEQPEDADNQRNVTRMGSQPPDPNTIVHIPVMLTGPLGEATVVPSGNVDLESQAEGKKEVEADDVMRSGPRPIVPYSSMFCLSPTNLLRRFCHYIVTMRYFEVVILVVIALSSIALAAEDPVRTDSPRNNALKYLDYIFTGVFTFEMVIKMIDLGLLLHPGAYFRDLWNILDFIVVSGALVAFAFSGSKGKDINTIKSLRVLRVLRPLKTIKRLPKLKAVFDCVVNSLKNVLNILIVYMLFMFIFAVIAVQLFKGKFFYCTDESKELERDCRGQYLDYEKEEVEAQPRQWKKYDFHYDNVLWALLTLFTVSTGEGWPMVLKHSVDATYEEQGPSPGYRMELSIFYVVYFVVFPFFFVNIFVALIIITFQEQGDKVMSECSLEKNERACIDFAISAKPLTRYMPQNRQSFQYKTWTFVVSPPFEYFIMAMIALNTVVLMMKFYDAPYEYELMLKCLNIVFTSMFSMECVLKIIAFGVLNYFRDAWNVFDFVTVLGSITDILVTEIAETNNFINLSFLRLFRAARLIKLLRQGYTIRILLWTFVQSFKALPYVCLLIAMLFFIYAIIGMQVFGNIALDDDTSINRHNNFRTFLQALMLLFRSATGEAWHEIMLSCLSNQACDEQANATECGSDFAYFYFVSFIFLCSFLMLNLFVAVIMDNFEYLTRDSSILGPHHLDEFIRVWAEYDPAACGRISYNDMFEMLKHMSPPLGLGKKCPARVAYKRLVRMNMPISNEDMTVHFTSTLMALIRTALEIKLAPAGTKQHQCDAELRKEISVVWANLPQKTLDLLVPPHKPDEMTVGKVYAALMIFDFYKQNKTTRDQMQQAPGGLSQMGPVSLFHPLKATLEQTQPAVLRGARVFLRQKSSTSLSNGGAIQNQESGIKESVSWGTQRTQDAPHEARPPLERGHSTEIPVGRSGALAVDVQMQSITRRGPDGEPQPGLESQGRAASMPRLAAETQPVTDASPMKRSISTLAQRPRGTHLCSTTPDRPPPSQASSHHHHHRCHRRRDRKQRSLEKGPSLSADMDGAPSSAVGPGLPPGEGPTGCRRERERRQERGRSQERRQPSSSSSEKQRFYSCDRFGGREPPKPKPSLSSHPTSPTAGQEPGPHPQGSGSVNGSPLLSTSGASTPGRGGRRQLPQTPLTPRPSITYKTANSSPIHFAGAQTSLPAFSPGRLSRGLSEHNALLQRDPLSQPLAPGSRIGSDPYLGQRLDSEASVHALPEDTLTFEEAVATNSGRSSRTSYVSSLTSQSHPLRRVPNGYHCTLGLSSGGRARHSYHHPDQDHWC
T1 sequence (P54284 whole entry partner): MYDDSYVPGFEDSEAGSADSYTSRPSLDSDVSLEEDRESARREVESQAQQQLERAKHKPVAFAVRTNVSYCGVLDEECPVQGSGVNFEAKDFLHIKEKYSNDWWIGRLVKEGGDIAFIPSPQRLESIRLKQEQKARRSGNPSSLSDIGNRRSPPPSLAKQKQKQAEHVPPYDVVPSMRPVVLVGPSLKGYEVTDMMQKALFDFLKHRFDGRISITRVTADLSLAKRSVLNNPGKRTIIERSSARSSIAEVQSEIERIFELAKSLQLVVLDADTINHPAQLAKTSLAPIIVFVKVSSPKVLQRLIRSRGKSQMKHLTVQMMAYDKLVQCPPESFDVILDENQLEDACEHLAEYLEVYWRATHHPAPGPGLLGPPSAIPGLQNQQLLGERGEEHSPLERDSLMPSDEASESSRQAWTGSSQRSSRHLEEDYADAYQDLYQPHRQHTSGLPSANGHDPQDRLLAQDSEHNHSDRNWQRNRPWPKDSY
T1 sequence (P54289 25-946 partner limits assumed): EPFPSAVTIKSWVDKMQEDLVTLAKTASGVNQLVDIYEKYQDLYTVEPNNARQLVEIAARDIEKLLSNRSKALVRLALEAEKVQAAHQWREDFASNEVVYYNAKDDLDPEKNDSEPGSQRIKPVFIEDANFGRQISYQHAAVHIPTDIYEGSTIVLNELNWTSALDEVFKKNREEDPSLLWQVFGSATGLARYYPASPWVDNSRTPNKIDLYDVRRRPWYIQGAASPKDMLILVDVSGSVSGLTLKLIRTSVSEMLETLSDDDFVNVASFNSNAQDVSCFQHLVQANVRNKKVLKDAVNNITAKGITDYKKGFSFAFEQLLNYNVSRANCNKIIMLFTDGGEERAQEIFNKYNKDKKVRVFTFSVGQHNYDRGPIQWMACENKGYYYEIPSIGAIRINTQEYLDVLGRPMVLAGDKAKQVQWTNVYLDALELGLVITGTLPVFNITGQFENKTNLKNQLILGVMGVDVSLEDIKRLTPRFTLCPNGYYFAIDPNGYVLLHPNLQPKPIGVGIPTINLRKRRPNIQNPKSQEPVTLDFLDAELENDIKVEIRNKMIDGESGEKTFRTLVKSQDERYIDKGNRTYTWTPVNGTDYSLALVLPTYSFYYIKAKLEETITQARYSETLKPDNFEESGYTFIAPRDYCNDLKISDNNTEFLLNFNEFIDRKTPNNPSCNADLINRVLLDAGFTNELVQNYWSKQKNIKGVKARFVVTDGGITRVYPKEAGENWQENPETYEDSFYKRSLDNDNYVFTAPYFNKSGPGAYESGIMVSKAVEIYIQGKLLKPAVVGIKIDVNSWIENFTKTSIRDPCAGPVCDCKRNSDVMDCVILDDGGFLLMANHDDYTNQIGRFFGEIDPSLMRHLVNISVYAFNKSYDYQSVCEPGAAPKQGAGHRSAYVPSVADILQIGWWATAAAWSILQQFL
T1 sequence (P54289 947-1103 partner limits assumed): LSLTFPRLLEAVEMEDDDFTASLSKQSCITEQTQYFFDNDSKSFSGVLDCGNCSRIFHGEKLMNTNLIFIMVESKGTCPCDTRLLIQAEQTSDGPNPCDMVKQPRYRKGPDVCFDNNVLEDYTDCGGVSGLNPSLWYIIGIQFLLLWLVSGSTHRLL

Row | SMILES | IC50 [1] [µM] | IC50 [µM]
1 | Cc1c(C(=O)N2CCCCCC2)oc2ccc(S(=O)(=O)N3CCC(C)CC3)cc12 [compound 347] | 5 to 20 | 
2 | CC1CCN(S(=O)(=O)c2ccc3[nH]c(C(=O)N4CCCCCC4)cc3c2)CC1 [compound 348] | 5 to 20 | 
3 | CC1CC(C)CN(S(=O)(=O)c2ccc3c(c2)cc(C(=O)NC2CC2)n3S(=O)(=O)c2ccccc2)C1 (stereo not drawn) [compound 349] | < 5 | 
4 | Cc1c(C(=O)N2CCC3(CC2)OCCO3)[nH]c2ccc(S(=O)(=O)N3CCC(C)CC3)cc12 [compound 351] |  | 5 to 20
5 | Cc1c(C(=O)NCC2CCCO2)oc2ccc(S(=O)(=O)N3CCCCC3)cc12 (stereo not drawn) [compound 352] | 5 to 20 | 
6 | Cc1c(C(=O)N(C)C)oc2ccc(S(=O)(=O)N3CCC(C)CC3)cc12 [compound 353] | 5 to 20 | 
7 | O=C(c1cc2cc(S(=O)(=O)N3CCCCCC3)ccc2[nH]1)N1CCCCC1 [compound 354] | 5 to 20 | 
8 | Cc1c(C(=O)NCC2CCCO2)[nH]c2ccc(S(=O)(=O)N3CCC(C)CC3)cc12 (stereo not drawn) [compound 355] | 5 to 20 | 
9 | CCN(CC)S(=O)(=O)c1ccc2oc(C(=O)N3CCC4(CC3)OCCO4)c(C)c2c1 [compound 356] |  | < 20
10 | CC1CC(C)CN(S(=O)(=O)c2ccc3[nH]c(C(=O)NCc4ccccc4)cc3c2)C1 (stereo not drawn) [compound 357] | < 5 | 
11 | O=C(c1cc2cc(S(=O)(=O)N3CCCCCC3)ccc2[nH]1)N1CCCCCC1 [compound 358] | 5 to 20 | 
12 | Cc1c(C(=O)N2CCOCC2)oc2ccc(S(=O)(=O)N3CCC(C)CC3)cc12 [compound 359] | 5 to 20 | 
13 | Cc1c(C(=O)N(C)Cc2ccccc2)oc2ccc(S(=O)(=O)N3CCOCC3)cc12 [compound 360] | 5 to 20 | 
14 | Cc1c(C(=O)NC2CCCC2)oc2ccc(S(=O)(=O)N3CCOCC3)cc12 [compound 361] | < 20 | 
15 | Cc1c(C(=O)N2CCCCCC2)[nH]c2ccc(S(=O)(=O)N3CC(C)CC(C)C3)cc12 (stereo not drawn) [compound 362] | < 5 | 
16 | O=C(NCC1CCOCC1)c1cc2cc(S(=O)(=O)N3CCCCCC3)ccc2o1 [compound 363] | 5 to 20 | 
17 | CC1CCN(C(=O)c2cc3cc(S(=O)(=O)N4CCCCCC4)ccc3[nH]2)CC1 [compound 364] | 5 to 20 | 
18 | CNC(=O)c1oc2ccc(S(=O)(=O)N3CCCC(C)C3)cc2c1C (stereo not drawn) [compound 365] | 5 to 20 | 
19 | CC1CC(C)CN(S(=O)(=O)c2ccc3[nH]c(C(=O)NC4CCCC4)cc3c2)C1 (stereo not drawn) [compound 366] | < 5 | 
20 | CCN(CC)S(=O)(=O)c1ccc2oc(C(=O)N3CCCCC3)c(C)c2c1 [compound 367] | < 20 | 
21 | CC1CCN(S(=O)(=O)c2ccc3[nH]c(C(=O)N4CCCCC4)cc3c2)CC1 [compound 368] | < 5 | 
22 | CCCCN(C)C(=O)c1oc2ccc(S(=O)(=O)N3CCCC(C)C3)cc2c1C (stereo not drawn) [compound 369] | < 5 | 
23 | CCN(CC)S(=O)(=O)c1ccc2oc(C(=O)NC3CCCCC3)c(C)c2c1 [compound 370] | 5 to 20 | 
24 | Cc1c(C(=O)NC2CCCCC2)oc2ccc(S(=O)(=O)N3CCC4(CC3)OCCO4)cc12 [compound 371] | 5 to 20 | 
25 | Cc1c(C(=O)N2CCOCC2)oc2ccc(S(=O)(=O)N3CCCCC3)cc12 [compound 372] | < 20 | 
26 | Cc1c(C(=O)N(C)Cc2ccccc2)[nH]c2ccc(S(=O)(=O)N3CC(C)CC(C)C3)cc12 (stereo not drawn) [compound 373] | < 5 | 

Row | SMILES | IC50 [1] [µM] | IC50 [µM]
27 | CCN(CC)C(=O)c1cc2cc(S(=O)(=O)N3CC(C)CC(C)C3)ccc2n1CCCN1CCN(C)CC1 (stereo not drawn) [compound 374] | < 5 | 
28 | COc1ccccc1CNC(=O)c1oc2ccc(S(=O)(=O)N3CCCC3)cc2c1C [compound 375] | 5 to 20 | 
29 | Cc1c(C(=O)N2CCC(C)CC2)oc2ccc(S(=O)(=O)N3CCCC(C)C3)cc12 (stereo not drawn) [compound 376] | < 5 | 
30 | CCCCN(C)C(=O)c1cc2cc(S(=O)(=O)N3CC(C)CC(C)C3)ccc2[nH]1 (stereo not drawn) [compound 377] | < 5 | 
31 | Cc1c(C(=O)N2CCCC(C)C2)oc2ccc(S(=O)(=O)N3CC(C)CC(C)C3)cc12 (stereo not drawn) [compound 378] | < 5 | 
32 | Cc1c(C(=O)N2CCCCC2C)[nH]c2ccc(S(=O)(=O)N3CCCCCC3)cc12 (stereo not drawn) [compound 379] | 5 to 20 | 
33 | CC1CCN(S(=O)(=O)c2ccc3cc(C(=O)N(C)C)[nH]c3c2)CC1 [compound 380] | < 20 | 
34 | Cc1c(C(=O)NCCc2ccccc2)[nH]c2ccc(S(=O)(=O)N3CCC(C)CC3)cc12 [compound 381] | < 5 | 
35 | O=C(NCc1ccccc1)c1cc2cc(S(=O)(=O)N3CCCCCC3)ccc2[nH]1 [compound 382] | < 5 | 
36 | Cc1c(C(=O)NCC2CCOCC2)oc2ccc(S(=O)(=O)N3CCCC(C)C3)cc12 (stereo not drawn) [compound 383] | 5 to 20 | 
37 | CCNC(=O)c1cc2cc(S(=O)(=O)N3CC(C)CC(C)C3)ccc2[nH]1 (stereo not drawn) [compound 384] | < 5 | 
38 | Cc1c(C(=O)N2CCN(C)CC2)oc2ccc(S(=O)(=O)N3CCC(C)CC3)cc12 [compound 385] | 5 to 20 | 
39 | O=C(NCC1CCCO1)c1cc2cc(S(=O)(=O)N3CCCCCC3)ccc2[nH]1 (stereo not drawn) [compound 386] | < 5 | 
40 | CCCS(=O)(=O)n1c(C(=O)N2CCCCC2)cc2cc(S(=O)(=O)N3CC(C)CC(C)C3)ccc21 (stereo not drawn) [compound 387] | < 5 | 
41 | CCN(CC)S(=O)(=O)c1ccc2oc(C(=O)N3CCCC(C)C3)c(C)c2c1 (stereo not drawn) [compound 388] | 5 to 20 | 
42 | CC1CC(C)CN(S(=O)(=O)c2ccc3[nH]c(C(=O)N4CCCCC4)cc3c2)C1 (stereo not drawn) [compound 389] | < 5 | 
43 | Cc1c(C(=O)NC2CCCC2)[nH]c2ccc(S(=O)(=O)N3CC(C)CC(C)C3)cc12 (stereo not drawn) [compound 390] | < 5 | 
44 | CC1CC(C)CN(S(=O)(=O)c2ccc3c(c2)cc(C(=O)N2CCCCC2)n3C)C1 (stereo not drawn) [compound 391] | < 5 | 
45 | CC1CCCCN1C(=O)c1cc2cc(S(=O)(=O)N3CCCCCC3)ccc2o1 (stereo not drawn) [compound 392] | 5 to 20 | 
46 | Cc1c(C(=O)NCCc2ccccc2)oc2ccc(S(=O)(=O)N3CC(C)CC(C)C3)cc12 (stereo not drawn) [compound 393] | < 5 | 
47 | Cc1ccc(CNS(=O)(=O)c2ccc3oc(C(=O)NC4CC4)c(C)c3c2)cc1 [compound 394] | < 20 | 
48 | Cc1c(C(=O)NC2CC2)oc2ccc(S(=O)(=O)N3CCC(C)CC3)cc12 [compound 395] | 5 to 20 | 
49 | Cc1c(C(=O)N(CCN(C)C)Cc2ccccc2)oc2ccc(S(=O)(=O)N3CCC(C)CC3)cc12 [compound 396] | < 5 | 
50 | Cc1c(C(=O)NCc2ccccc2)oc2ccc(S(=O)(=O)N3CCCC(C)C3)cc12 (stereo not drawn) [compound 397] | 5 to 20 | 
51 | O=C(NCc1ccccc1)c1cc2cc(S(=O)(=O)N3CCCCCC3)ccc2n1S(=O)(=O)c1ccccc1 [compound 398] | < 5 | 
52 | CCN(CC)S(=O)(=O)c1ccc2oc(C(=O)NC(C)C)c(C)c2c1 [compound 399] | < 20 | 

Row | SMILES | IC50 [1] [µM] | IC50 [µM]
53 | CC(C)NC(=O)c1cc2cc(S(=O)(=O)N3CCCCCC3)ccc2[nH]1 [compound 400] | < 20 | 
54 | Cc1c(C(=O)NCCCc2ccccc2)oc2ccc(S(=O)(=O)N3CCCC(C)C3)cc12 (stereo not drawn) [compound 401] | < 5 | 
55 | Cc1c(C(=O)N2CCCC2)oc2ccc(S(=O)(=O)N3CCCCCC3)cc12 [compound 402] | < 20 | 
56 | CCOC(=O)N1CCN(C(=O)c2oc3ccc(S(=O)(=O)N4CCCC(C)C4)cc3c2C)CC1 (stereo not drawn) [compound 403] | < 5 | 
57 | Cc1c(C(=O)N2CCN(C)CC2)oc2ccc(S(=O)(=O)N3CCCC(C)C3)cc12 (stereo not drawn) [compound 404] | 5 to 20 | 
58 | CC1CC(C)CN(S(=O)(=O)c2ccc3[nH]c(C(=O)NCCC4CCOCC4)cc3c2)C1 (stereo not drawn) [compound 405] | < 5 | 
59 | CC1CCCN(C(=O)c2cc3cc(S(=O)(=O)N4CC(C)CC(C)C4)ccc3o2)C1 (stereo not drawn) [compound 406] | < 5 | 
60 | CC1CCN(S(=O)(=O)c2ccc3[nH]c(C(=O)NCC4CCCO4)cc3c2)CC1 (stereo not drawn) [compound 407] | < 5 | 
61 | CC1CC(C)CN(S(=O)(=O)c2ccc3oc(C(=O)NCC4CCCO4)cc3c2)C1 (stereo not drawn) [compound 408] | < 5 | 
62 | Cc1c(C(=O)N2CCCCCC2)oc2ccc(S(=O)(=O)N3CCCC(C)C3)cc12 (stereo not drawn) [compound 409] | < 5 | 
63 | CCOC(=O)N1CCN(C(=O)c2cc3cc(S(=O)(=O)N4CCCCCC4)ccc3o2)CC1 [compound 410] | 5 to 20 | 
64 | Cc1c(C(=O)NC(C)C)oc2ccc(S(=O)(=O)N3CCC(C)CC3)cc12 [compound 411] | < 5 | 
65 | CC1CCN(S(=O)(=O)c2ccc3[nH]c(C(=O)NC4CCCC4)cc3c2)CC1 [compound 412] | < 5 | 
66 | Cc1c(C(=O)N2CCCC(C)C2)oc2ccc(S(=O)(=O)N3CCCC(C)C3)cc12 (stereo not drawn) [compound 413] | < 5 | 
67 | Cc1c(C(=O)N2CCCC2)oc2ccc(S(=O)(=O)N3CC(C)CC(C)C3)cc12 (stereo not drawn) [compound 414] | < 5 | 
68 | CCOC(=O)N1CCN(C(=O)c2cc3cc(S(=O)(=O)N4CC(C)CC(C)C4)ccc3[nH]2)CC1 (stereo not drawn) [compound 415] | < 5 | 
69 | CN(Cc1ccccc1)C(=O)c1cc2cc(S(=O)(=O)N3CCCCCC3)ccc2[nH]1 [compound 416] | < 5 | 
70 | CC1CCN(S(=O)(=O)c2ccc3oc(C(=O)N4CCCC(C)C4)cc3c2)CC1 (stereo not drawn) [compound 417] | 5 to 20 | 
71 | O=C(NCC1CCOCC1)c1cc2cc(S(=O)(=O)N3CCCCCC3)ccc2[nH]1 [compound 418] | < 5 | 
72 | CC1CC(C)CN(S(=O)(=O)c2ccc3c(c2)cc(C(=O)N2CCN(C)CC2)n3S(=O)(=O)c2ccccc2)C1 (stereo not drawn) [compound 419] | 5 to 20 | 
73 | CCCCN(C)C(=O)c1[nH]c2ccc(S(=O)(=O)N3CC(C)CC(C)C3)cc2c1C (stereo not drawn) [compound 420] | < 5 | 
74 | O=C(NC1CC1)c1cc2cc(S(=O)(=O)N3CCCCCC3)ccc2n1S(=O)(=O)c1ccccc1 [compound 421] | < 5 | 
75 | CCCCN(C)C(=O)c1cc2cc(S(=O)(=O)N3CCCCCC3)ccc2[nH]1 [compound 422] | < 5 | 
76 | CCN(CC)C(=O)c1oc2ccc(S(=O)(=O)N3CC(C)CC(C)C3)cc2c1C (stereo not drawn) [compound 423] | < 5 | 
77 | Cc1c(C(=O)NC2CCCCC2)[nH]c2ccc(S(=O)(=O)N3CCC(C)CC3)cc12 [compound 424] | 5 to 20 | 
78 | CC1CC(C)CN(C(=O)c2cc3cc(S(=O)(=O)N4CC(C)CC(C)C4)ccc3[nH]2)C1 (stereo not drawn) [compound 425] | < 5 | 
